From patent US10168342B2, “Lipid probes and uses thereof” (THE SCRIPPS RESEARCH INSTITUTE, priority 2015, dated 2019)
Where two headings read alike, the source gives them in different places.

Assays:
[1] = biological target: T1, AEA-DA lipid probe targets in Neuro2a cells (Mus musculus, UniProt Q9CY50)
T1 sequence (Q9CY50 22-286): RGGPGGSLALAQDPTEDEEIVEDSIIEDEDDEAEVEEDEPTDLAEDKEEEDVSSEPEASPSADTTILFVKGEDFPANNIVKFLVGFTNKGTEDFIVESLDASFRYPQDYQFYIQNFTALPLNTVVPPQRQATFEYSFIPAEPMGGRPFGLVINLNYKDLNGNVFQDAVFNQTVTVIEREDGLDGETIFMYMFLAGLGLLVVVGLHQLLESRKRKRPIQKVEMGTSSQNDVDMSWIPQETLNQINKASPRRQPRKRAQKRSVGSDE

[2] = biological target: T2, AEA-DA lipid probe targets in Neuro2a cells (Mus musculus, UniProt Q8BSF4)
T2 sequence (Q8BSF4 50-406): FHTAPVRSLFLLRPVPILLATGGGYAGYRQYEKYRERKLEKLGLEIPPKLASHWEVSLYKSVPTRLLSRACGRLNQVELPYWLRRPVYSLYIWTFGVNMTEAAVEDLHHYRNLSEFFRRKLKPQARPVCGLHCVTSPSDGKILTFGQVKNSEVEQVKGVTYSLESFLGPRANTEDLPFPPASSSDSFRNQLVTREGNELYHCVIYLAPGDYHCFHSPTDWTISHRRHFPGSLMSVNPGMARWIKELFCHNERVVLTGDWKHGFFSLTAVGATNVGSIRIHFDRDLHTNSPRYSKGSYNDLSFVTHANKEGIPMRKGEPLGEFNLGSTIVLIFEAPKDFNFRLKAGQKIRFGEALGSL

[3] = biological target: T3, AEA-DA lipid probe targets in Neuro2a cells (Mus musculus, UniProt Q8VD00)
T3 sequence (Q8VD00 1-176): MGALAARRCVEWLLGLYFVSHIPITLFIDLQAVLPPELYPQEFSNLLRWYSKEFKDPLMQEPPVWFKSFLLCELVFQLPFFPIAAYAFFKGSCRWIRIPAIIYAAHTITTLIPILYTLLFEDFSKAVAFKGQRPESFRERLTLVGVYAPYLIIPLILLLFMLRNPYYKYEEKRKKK

[4] = biological target: T4, AEA-DA lipid probe targets in Neuro2a cells (Mus musculus, UniProt Q9DBL9)
T4 sequence (Q9DBL9 1-351): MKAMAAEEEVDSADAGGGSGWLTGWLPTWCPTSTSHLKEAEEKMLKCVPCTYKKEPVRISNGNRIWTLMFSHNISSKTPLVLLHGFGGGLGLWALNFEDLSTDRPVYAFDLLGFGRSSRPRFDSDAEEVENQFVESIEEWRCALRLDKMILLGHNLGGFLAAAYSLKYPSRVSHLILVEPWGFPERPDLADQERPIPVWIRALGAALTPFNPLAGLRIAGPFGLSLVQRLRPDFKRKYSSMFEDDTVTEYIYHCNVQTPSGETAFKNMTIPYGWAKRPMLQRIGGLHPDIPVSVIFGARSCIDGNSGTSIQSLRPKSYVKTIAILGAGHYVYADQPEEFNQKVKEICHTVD

[5] = biological target: AEA-DA lipid probe targets in Neuro2a cells (Mus musculus, UniProt Q8BMS1)
[6] = biological target: T5, AEA-DA lipid probe targets in Neuro2a cells (Mus musculus, UniProt O35114)
T5 sequence (O35114 1-478): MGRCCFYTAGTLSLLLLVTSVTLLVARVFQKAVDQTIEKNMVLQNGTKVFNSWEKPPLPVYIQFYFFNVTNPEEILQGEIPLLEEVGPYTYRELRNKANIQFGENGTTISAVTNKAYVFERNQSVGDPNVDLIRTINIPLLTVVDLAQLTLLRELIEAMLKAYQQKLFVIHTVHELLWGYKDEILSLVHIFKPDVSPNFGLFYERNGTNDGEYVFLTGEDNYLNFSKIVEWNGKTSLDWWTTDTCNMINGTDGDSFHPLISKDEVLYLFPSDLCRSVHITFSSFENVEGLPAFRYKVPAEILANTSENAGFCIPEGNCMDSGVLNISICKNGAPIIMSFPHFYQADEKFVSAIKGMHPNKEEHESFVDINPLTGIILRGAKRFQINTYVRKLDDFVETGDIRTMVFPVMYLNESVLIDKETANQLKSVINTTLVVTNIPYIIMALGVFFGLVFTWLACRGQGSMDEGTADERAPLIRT

[7] = biological target: AEA-DA lipid probe targets in Neuro2a cells (Mus musculus, UniProt P09055)
[8] = biological target: T6, AEA-DA lipid probe targets in Neuro2a cells (Mus musculus, UniProt P00375)
T6 sequence (P00375 1-187): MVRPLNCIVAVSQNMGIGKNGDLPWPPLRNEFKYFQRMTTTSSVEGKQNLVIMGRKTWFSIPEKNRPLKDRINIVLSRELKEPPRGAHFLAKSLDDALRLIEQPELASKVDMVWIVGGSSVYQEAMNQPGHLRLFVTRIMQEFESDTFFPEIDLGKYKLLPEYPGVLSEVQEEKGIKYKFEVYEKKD

[9] = biological target: AEA-DA lipid probe targets in Neuro2a cells (Mus musculus, UniProt P47867)
[10] = biological target: T7, AEA-DA lipid probe targets in Neuro2a cells (Mus musculus, UniProt O88455)
T7 sequence (O88455 1-471): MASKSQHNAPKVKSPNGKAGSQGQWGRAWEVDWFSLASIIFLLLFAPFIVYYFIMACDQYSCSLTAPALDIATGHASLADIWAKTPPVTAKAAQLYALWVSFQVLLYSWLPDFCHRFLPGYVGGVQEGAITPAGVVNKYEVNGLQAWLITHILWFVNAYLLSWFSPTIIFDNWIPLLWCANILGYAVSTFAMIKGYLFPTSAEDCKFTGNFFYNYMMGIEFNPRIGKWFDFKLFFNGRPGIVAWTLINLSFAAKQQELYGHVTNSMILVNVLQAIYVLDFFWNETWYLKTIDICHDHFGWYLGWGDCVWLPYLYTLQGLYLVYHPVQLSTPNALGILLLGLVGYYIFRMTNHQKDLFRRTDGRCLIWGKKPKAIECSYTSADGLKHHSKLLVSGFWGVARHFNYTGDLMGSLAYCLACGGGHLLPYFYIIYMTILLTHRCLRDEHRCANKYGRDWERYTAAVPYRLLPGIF

Chain of AEA-DA lipid probe targets in Neuro2a cells (Mus musculus, UniProt Q8BMS1) (Q8BMS1 37-763): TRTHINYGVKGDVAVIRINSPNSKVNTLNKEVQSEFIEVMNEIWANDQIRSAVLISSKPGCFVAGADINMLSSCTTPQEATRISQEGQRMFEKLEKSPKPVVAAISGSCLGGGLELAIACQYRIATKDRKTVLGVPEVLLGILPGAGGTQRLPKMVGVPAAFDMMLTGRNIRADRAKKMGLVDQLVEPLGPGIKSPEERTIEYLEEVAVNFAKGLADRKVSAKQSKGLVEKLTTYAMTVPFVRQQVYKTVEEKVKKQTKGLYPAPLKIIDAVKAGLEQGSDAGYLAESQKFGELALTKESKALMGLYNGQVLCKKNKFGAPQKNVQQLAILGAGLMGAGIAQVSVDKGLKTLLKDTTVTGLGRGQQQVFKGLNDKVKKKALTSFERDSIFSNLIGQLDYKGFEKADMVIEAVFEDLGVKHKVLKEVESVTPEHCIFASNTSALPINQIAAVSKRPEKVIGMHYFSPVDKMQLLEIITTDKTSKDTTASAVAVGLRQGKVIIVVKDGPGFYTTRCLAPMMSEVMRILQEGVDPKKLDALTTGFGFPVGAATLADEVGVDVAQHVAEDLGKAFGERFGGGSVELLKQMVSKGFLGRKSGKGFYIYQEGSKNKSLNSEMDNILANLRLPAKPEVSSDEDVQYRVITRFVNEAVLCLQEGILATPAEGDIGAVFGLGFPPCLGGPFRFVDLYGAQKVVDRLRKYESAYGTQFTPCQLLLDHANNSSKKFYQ
Chain of AEA-DA lipid probe targets in Neuro2a cells (Mus musculus, UniProt P09055) (P09055 21-798): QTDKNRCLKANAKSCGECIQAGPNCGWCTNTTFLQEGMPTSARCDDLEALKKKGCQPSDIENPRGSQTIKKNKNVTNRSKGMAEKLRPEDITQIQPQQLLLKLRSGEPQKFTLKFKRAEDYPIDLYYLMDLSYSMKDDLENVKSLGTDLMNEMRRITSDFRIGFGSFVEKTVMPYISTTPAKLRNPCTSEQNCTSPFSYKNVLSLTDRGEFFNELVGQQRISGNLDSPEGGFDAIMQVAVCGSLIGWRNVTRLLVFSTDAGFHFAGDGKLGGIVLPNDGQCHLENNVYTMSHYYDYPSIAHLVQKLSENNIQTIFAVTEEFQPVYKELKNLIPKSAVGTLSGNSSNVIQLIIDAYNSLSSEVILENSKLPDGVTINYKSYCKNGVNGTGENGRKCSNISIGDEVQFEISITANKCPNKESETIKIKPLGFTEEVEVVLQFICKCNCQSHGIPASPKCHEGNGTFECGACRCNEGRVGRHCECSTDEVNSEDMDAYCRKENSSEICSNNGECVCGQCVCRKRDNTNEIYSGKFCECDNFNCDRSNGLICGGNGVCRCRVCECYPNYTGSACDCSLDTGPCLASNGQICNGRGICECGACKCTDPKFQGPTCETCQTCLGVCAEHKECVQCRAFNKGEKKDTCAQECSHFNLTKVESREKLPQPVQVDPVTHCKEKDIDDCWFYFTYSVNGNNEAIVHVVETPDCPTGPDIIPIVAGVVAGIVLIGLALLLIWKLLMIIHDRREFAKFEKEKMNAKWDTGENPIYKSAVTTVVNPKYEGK
Chain of AEA-DA lipid probe targets in Neuro2a cells (Mus musculus, UniProt P47867) (P47867 23-471): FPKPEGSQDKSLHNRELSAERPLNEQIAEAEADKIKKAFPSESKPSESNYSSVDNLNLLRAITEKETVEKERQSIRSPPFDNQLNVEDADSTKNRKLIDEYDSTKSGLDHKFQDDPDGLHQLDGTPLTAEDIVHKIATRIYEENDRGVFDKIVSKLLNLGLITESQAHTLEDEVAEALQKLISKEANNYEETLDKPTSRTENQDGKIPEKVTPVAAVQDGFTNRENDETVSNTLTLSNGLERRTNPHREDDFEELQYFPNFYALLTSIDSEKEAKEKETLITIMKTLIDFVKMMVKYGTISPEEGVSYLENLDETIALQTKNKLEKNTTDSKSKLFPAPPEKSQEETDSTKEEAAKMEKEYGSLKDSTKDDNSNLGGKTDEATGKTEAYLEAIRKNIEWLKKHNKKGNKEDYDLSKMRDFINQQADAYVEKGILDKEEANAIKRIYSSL

## CCCCC/C=C\C/C=C\C/C=C\C/C=C\CCCC(=O)NCCO [AEA, anandamide, reference compound]
[1]; competitor 200 μM
  SILAC ratio, Ssr1: 1.9
[2]; competitor 200 μM
  SILAC ratio, Pisd: 1.8
[3]; competitor 200 μM
  SILAC ratio, Tmem97: 1.8
[4]; competitor 200 μM
  SILAC ratio, Abhd5: 1.3
[5]; competitor 200 μM
  SILAC ratio, Hadha: 2.3
[6]; competitor 200 μM
  SILAC ratio Scarb2: 1.5
[7]; competitor 200 μM
  SILAC ratio Itgb1: 1.5
[8]; competitor 200 μM
  SILAC ratio Dhfr: 1.2
[9]; competitor 200 μM
  SILAC ratio, Scg3: 1.2
[10]; competitor 200 μM
  SILAC ratio Dhcr7: 1.5

## O=C(/C=C/c1cccnc1)NCCCCC1CCN(C(=O)c2ccccc2)CC1 [FK-866, reference compound]
[1]; competitor 25 μM
  SILAC ratio, Ssr1: 1.3
[3]; competitor 25 μM
  SILAC ratio, Tmem97: 1.0
[4]; competitor 25 μM
  SILAC ratio, Abhd5: 1.0
[5]; competitor 25 μM
  SILAC ratio, Hadha: 6.2
[6]; competitor 25 μM
  SILAC ratio Scarb2: 1.1
[8]; competitor 25 μM
  SILAC ratio Dhfr: 1.2
[9]; competitor 25 μM
  SILAC ratio, Scg3: 1.0
[10]; competitor 25 μM
  SILAC ratio Dhcr7: 0.9

## CN1CCN(C(=O)c2c(-c3ccccc3)c3cc([N+](=O)[O-])ccc3n2C)CC1 [KML110, (1-Methyl-5-nitro-3-phenyl-1H-indol-2-yl)(4-methylpiperazin-1-yl)methanone]
[1]; competitor 25 μM
  SILAC ratio, Ssr1: 1.7
[2]; competitor 25 μM
  SILAC ratio, Pisd: 1.4
[3]; competitor 25 μM
  SILAC ratio, Tmem97: 1.6
[4]; competitor 25 μM
  SILAC ratio, Abhd5: 2.0
[5]; competitor 25 μM
  SILAC ratio, Hadha: 2.0
[6]; competitor 25 μM
  SILAC ratio Scarb2: 1.3
[7]; competitor 25 μM
  SILAC ratio Itgb1: 1.0
[8]; competitor 25 μM
  SILAC ratio Dhfr: 1.4
[9]; competitor 25 μM
  SILAC ratio, Scg3: 1.0
[10]; competitor 25 μM
  SILAC ratio Dhcr7: 1.2

## CN1CCN(C(=O)c2[nH]c3ccc([N+](=O)[O-])cc3c2-c2ccccc2)CC1 [MJN228, (4-Methylpiperazin-1-yl)(5-nitro-3-phenyl-1H-indol-2-yl)methanone]
[1]; competitor 10 μM
  SILAC ratio, Ssr1: 1.3
[1]; competitor 25 μM
  SILAC ratio, Ssr1: 1.7
[1]; competitor 50 μM
  SILAC ratio, Ssr1: 1.8
[1]; competitor 100 μM
  SILAC ratio, Ssr1: 3.0
[2]; competitor 25 μM
  SILAC ratio, Pisd: 1.4
[3]; competitor 10 μM
  SILAC ratio, Tmem97: 1.4
[3]; competitor 25 μM
  SILAC ratio, Tmem97: 1.7
[3]; competitor 50 μM
  SILAC ratio, Tmem97: 2.1
[3]; competitor 100 μM
  SILAC ratio, Tmem97: 3.2
[4]; competitor 10 μM
  SILAC ratio, Abhd5: 1.6
[4]; competitor 25 μM
  SILAC ratio, Abhd5: 2.2
[4]; competitor 50 μM
  SILAC ratio, Abhd5: 4.0
[4]; competitor 100 μM
  SILAC ratio, Abhd5: 14.3
[5]; competitor 10 μM
  SILAC ratio, Hadha: 1.4
[5]; competitor 25 μM
  SILAC ratio, Hadha: 1.7
[5]; competitor 50 μM
  SILAC ratio, Hadha: 2.0
[5]; competitor 100 μM
  SILAC ratio, Hadha: 2.9
[6]; competitor 10 μM
  SILAC ratio Scarb2: 1.3
[6]; competitor 25 μM
  SILAC ratio Scarb2: 1.5
[6]; competitor 50 μM
  SILAC ratio Scarb2: 1.7
[6]; competitor 100 μM
  SILAC ratio Scarb2: 1.9
[7]; competitor 10 μM
  SILAC ratio Itgb1: 1.2
[7]; competitor 25 μM
  SILAC ratio Itgb1: 1.3
[7]; competitor 50 μM
  SILAC ratio Itgb1: 1.1
[7]; competitor 100 μM
  SILAC ratio Itgb1: 1.1
[8]; competitor 10 μM
  SILAC ratio Dhfr: 2.0
[8]; competitor 25 μM
  SILAC ratio Dhfr: 1.6
[8]; competitor 50 μM
  SILAC ratio Dhfr: 0.4
[8]; competitor 100 μM
  SILAC ratio Dhfr: 1.5
[9]; competitor 10 μM
  SILAC ratio, Scg3: 1.0
[9]; competitor 25 μM
  SILAC ratio, Scg3: 1.3
[9]; competitor 50 μM
  SILAC ratio, Scg3: 1.0
[9]; competitor 100 μM
  SILAC ratio, Scg3: 0.8
[10]; competitor 10 μM
  SILAC ratio Dhcr7: 1.1
[10]; competitor 25 μM
  SILAC ratio Dhcr7: 1.2
[10]; competitor 50 μM
  SILAC ratio Dhcr7: 1.5
[10]; competitor 100 μM
  SILAC ratio Dhcr7: 1.7

## C=CCN(C)CCCCCCOc1ccc(C(=O)c2ccc(Br)cc2)c(F)c1 [Ro 48-8071, reference compound]
[1]; competitor 25 μM
  SILAC ratio, Ssr1: 1.3
[2]; competitor 25 μM
  SILAC ratio, Pisd: 1.3
[3]; competitor 25 μM
  SILAC ratio, Tmem97: 10.0
[4]; competitor 25 μM
  SILAC ratio, Abhd5: 1.4
[5]; competitor 25 μM
  SILAC ratio, Hadha: 1.0
[6]; competitor 25 μM
  SILAC ratio Scarb2: 1.1
[8]; competitor 25 μM
  SILAC ratio Dhfr: 0.8
[9]; competitor 25 μM
  SILAC ratio, Scg3: 0.9
[10]; competitor 25 μM
  SILAC ratio Dhcr7: 0.8
